Measured values as given in PMC7602804 (Nutrients, 2020).

Tests used:
[1] = system: Caco-2 monolayers; assay: Apical to basolateral transport of milk peptides across Caco-2 monolayers (LC-MS/MS of basolateral medium); assay type: in vitro ADME, human; conditions: A-B, HBSS + 10 mM HEPES, 2.5 h; for Peptide identified in the basolateral chamber of Caco-2 monolayers (transported): Caco-2, 3 weeks on PET inserts 0.4 μm, TEER above 400 Ω cm^2, mix of 192 purified milk peptides 0.1 mg/mL apical, LC-MS/MS of basolateral medium, identified in two out of three experiments; for Peptides identified in the basolateral chamber of Caco-2 monolayers after synthetic PIGSENSEKTTMPLW was added apically: synthetic PIGSENSEKTTMPLW 2 µg/mL apical, LC-MS/MS
Procedure: The human colorectal adenocarcinoma cell line, Caco-2, was obtained from DSMZ (Braunschweig, Germany). The cells were grown to 50–60% confluence in Dulbecco’s Modified Eagle Medium (DMEM) Glutamax cell culture medium, supplemented with 10% heat-inactivated fetal bovine serum, 100 units/mL of penicillin and 100 μg/mL of streptomycin (all from Invitrogen, Carlsbad, CA, USA) in a humidified 5% CO2/95% air atmosphere at 37 °C. The cells used in the experiments were between passages 30 and 40.
The Caco-2 cells used for transport studies were seeded in polyethylene terephthalate culture inserts, with a pore size of 0.4 μm and a growth area of 0.33 cm^2 at a density of approximately 25,000 cells/insert. The Caco-2 cells were grown for three weeks on the porous membrane before they were used for transepithelial transport. The integrity of the monolayers was confirmed by measuring the TEER using a Millicell ERS-2 volt ohmmeter. Only Caco-2 monolayers with TEER values above 400 Ω cm^2 were used for the transport analysis.
(§1) Following the TEER value measurement, the Caco-2 and PBEC monolayers were gently washed twice with phosphate-buffered saline, and the transport medium (Hanks’ Balanced Salt solution supplemented with 10 mM of HEPES) was added to the apical and basolateral compartments. The inserts were incubated for 15 min or 2.5 h with the purified milk peptides (0.1 mg/mL) or the synthetic PIGSENSEKTTMPLW peptide (2 µg/mL), after which medium from the apical and basolateral compartments were collected for liquid chromatography tandem mass spectrometry (LC-MS/MS) analysis. Inserts incubated with a medium without peptides served as the control in the transport experiments. Membrane integrity was validated by addition of D-[1-^14C]-Mannitol (3.5 µM, 56.8 mCi/mmol) (Perkin Elmer, Waltham, MA, USA) to the upper chamber of the culture inserts with or without milk peptides for 2.5 h. The passive permeability experiments were performed on four or five individual culture inserts. Basolateral samples were mixed with Ultima Gold liquid scintillation fluid (Perkin Elmer) and counted in a Tri-Carb 2810 TR scintillation counter (Perkin Elmer). The apparent permeability coefficient (Papp, cm/s) was determined as Papp = (dQ/dt)/(AC0) where dQ/dt is the steady state flux (cpm/s), A is the surface area of the cell culture insert membrane and C0 is the initial concentration in the apical compartment (cpm/mL).
LC-MS/MS analysis was performed on a TripleTOF 6600 mass spectrometer equipped with an Exigent nanoLC 415 system (AB Sciex, Les Ulis, France). All samples were micro-purified using 3 M Empore C18 discs packed in pipette tips. The lyophilized samples were dissolved in 0.1% formic acid, injected on a trap column (2 cm × 100 µm inner diameter) and separated on an analytical column packed in-house in a pulled emitter (15 cm × 75 µm inner diameter). All columns were packed with ReproSil-Pur C18-AQ 3 µm resin (courtesy of Dr. Marisch, Ammerbuch-Entringen, Germany). Peptides were eluted directly into the mass spectrometer with a linear gradient from 5 to 35% solvent B (0.1% formic acid in acetonitrile) for 20 min with a flowrate of 250 nL/min, followed after 10 min with 100% solvent B. Data files were converted to Mascot Generic Format using the Raw Converter (version 1.1.0.18) (http://fields.scripps.edu/rawconv/) or the AB Sciex MS Data Converter beta 1.1 (AB Sciex, Les Ulis, France). The generated peak lists were searched against the Bos taurus proteome (UniProt database, https://www.uniprot.org)) using an in-house Mascot search engine (Matrix Science, London, UK). The searches were made without specifying a protease and with oxidation (Met) and phosphorylation (ST) as variable modifications. Peptide tolerance was set to 10 ppm and MS/MS tolerance was set to 0.2 Da. […]

[2] = system: porcine brain endothelial cell (PBEC) monolayers; assay: Apical to basolateral transport of milk peptides across porcine brain endothelial cell (PBEC) monolayers, blood-brain barrier model; assay type: in vitro ADME; conditions: A-B, HBSS + 10 mM HEPES, 2.5 h, LC-MS/MS; for Peptide identified in the basal compartment (brain side) of the PBEC BBB model (transported): primary PBEC on polyester inserts 0.4 μm, astrocyte conditioned medium, TEER higher than 800 Ω cm^2, mix of 192 milk peptides 0.1 mg/mL apical, five independent studies, αS1 peptide 'or' its truncated peptides stated collectively; for Peptides identified in the basolateral chamber of PBEC monolayers after synthetic PIGSENSEKTTMPLW was added apically: synthetic PIGSENSEKTTMPLW 2 µg/mL apical
Procedure: Capillaries were isolated from the brain cortices of domestic pigs 5–6 months old as previously described. PBECs were cultured by plating the capillaries in T75 flasks coated with collagen IV (500 µg/mL) and fibronectin (100 µg/mL) in DMEM-F12 medium, supplemented with 10% plasma-derived serum (First Link, Wolverhampton, UK), heparin (15 U), 100 units/mL of penicillin and 100 µg/mL of streptomycin (PBEC growth medium), and cultured in an incubator with humidified 5% CO2/95% air at 37 °C. Puromycin (4 µg/mL) was added to the growth medium for the first three days to obtain a pure culture of PBECs.
Astrocyte conditioned medium was collected every third day from primary rat astrocytes, sterile filtered and frozen until use. Isolation of primary rat astrocytes and preparation of astrocyte conditioned media were carried out as described in [20].
PBECs were grown until 70–80% confluency as described above and then passaged onto polyester culture inserts with a pore size of 0.4 μm and a growth area of 1.12 cm^2 (Costar, Corning, NY, USA) at a density of 1.1 × 10^5 cells/cm^2 in the PBEC growth medium. In the basolateral chamber, the medium consisted of 1 mL of PBEC growth medium and 0.5 mL of astrocyte conditioned medium. The medium was supplemented with differentiation factors: 550 nM of hydrocortisone, 250 μM of 8-(4-chlorophenylthio)adenosine-3′,5′-cyclic monophosphate (cAMP) and 17.5 μM of RO-201724 two days after seeding. The next day, the integrity of the PBEC monolayer was confirmed by measuring the TEER. Only PBEC monolayers with TEER values higher than 800 Ω cm^2 were used for the transport analysis.
as §1
LC-MS/MS analysis was performed on a TripleTOF 6600 mass spectrometer equipped with an Exigent nanoLC 415 system (AB Sciex, Les Ulis, France). All samples were micro-purified using 3 M Empore C18 discs packed in pipette tips. The lyophilized samples were dissolved in 0.1% formic acid, injected on a trap column (2 cm × 100 µm inner diameter) and separated on an analytical column packed in-house in a pulled emitter (15 cm × 75 µm inner diameter). All columns were packed with ReproSil-Pur C18-AQ 3 µm resin (courtesy of Dr. Marisch, Ammerbuch-Entringen, Germany). […]

[3] = system: pepsin, then trypsin, chymotrypsin and elastase; assay: In vitro simulation of gastrointestinal digestion; assay type: in vitro ADME; conditions: 1 mg/mL, pepsin 1:100 w/w, 0.15 M NaCl pH 2.5, 60 min, 37 °C, chymotrypsin 1:100 and elastase 1:500 w/w, 50 mM ammonium bicarbonate pH 7.6, 37 °C, sampled 5, 30, 60 and 270 min, MALDI-MS (osteopontin: SDS-PAGE)
Procedure: The purified milk peptides and the synthesized PIGSENSEKTTMPLW and […] peptides were subjected to digestion, essentially as described in [5, 26] with few modifications. The peptides were dissolved in 0.15 M of NaCl with a pH of 2.5 at a concentration of 1 mg/mL and incubated with pepsin from porcine gastric mucosa in a 1:100 w/w enzyme to substrate ratio for 60 min at 37 °C. Before digestion with pancreatic proteases, the sample was lyophilized and washed twice in deionized water. Trypsin and chymotrypsin from a bovine pancreas (Worthington Biochemical Corporation, NJ, USA) (1:100 w/w) and elastase (Worthington) (1:500 w/w) were added in 50 mM of ammonium bicarbonate buffer (pH = 7.6) and the mixture was incubated for 60 min at 37 °C. In digests of the synthesized peptides, aliquots were sampled and analyzed after 5 min, 30 min, 60 min and 270 min incubation with the intestinal enzymes. Bovine milk osteopontin was purified as previously described and incubated with the digestive proteases to validate their activity. The digested milk peptides were separated by RP-HPLC on an Aeris C4 widepore column (Phenomenex, Værløse, Denmark) connected to a Shimadzu (Kyoto, Japan) HPLC system. The peptides were separated in 0.1% TFA (buffer A) and eluted with a gradient of 60% acetonitrile in 0.1% TFA (buffer B) at 40 °C. The gradient was developed over 59 min (0–5 min: 0% buffer B; 5–49 min: 0–98% buffer B; 49–59 min: 98% buffer B) at a flow rate of 0.85 mL/min. The peptides were detected by measuring the absorbance at 226 nm and analyzed by matrix-assisted laser desorption ionization time-of-flight mass spectrometry (MALDI-MS).
MALDI-MS was performed using a Bruker Autoflex III instrument (Bruker Daltonics, Bremen, Germany). The analysis was performed using a saturated solution of α-cyano-4-hydroxycinnamic acid. The instrument was operated in reflected positive ionization mode and calibrated in the mass range of 1000 to 3200 Da using a peptide calibration standard (Bruker Daltonics, Bremen, Germany). The theoretical peptide masses were calculated using the General Protein/Mass Analysis for Windows software (Lighthouse Data, Odense, Denmark).

[4] = system: pepsin from porcine gastric mucosa, then trypsin and chymotrypsin from a bovine pancreas and elastase; assay: synthetic peptide: pepsin in 0.15 M NaCl pH 2.5 (1:100 w/w, 60 min), then trypsin, chymotrypsin (1:100 w/w) and elastase (1:500 w/w) in 50 mM ammonium bicarbonate pH 7.6; conditions: 37 °C, up to 270 min

Substance	Peptide identified in the basolateral chamber of Caco-2 monolayers (transported) [1]	Peptide identified in the basal compartment (brain side) of the PBEC BBB model (transported) [2]	other results
AAPAGAAIQS [endogenous bovine milk peptide from the polymeric immunoglobulin receptor]	not transported across the Caco-2 monolayers	identified in the basal compartment of the BBB model	
AAPAGAAIQSR [endogenous bovine milk peptide from the polymeric immunoglobulin receptor]	not transported across the Caco-2 monolayers	identified in the basal compartment of the BBB model	
Ac-YDGRGDSVVYGLRSKSKKFRR-NH2 [reference compound]			Stability of the synthetic peptide / control in simulated gastrointestinal digestion [3]: cleaved after 5 min incubation with the proteases
EVIESPPEINTVQVTSTAV [endogenous bovine milk peptide from κ-casein]	identified in the basolateral chamber		
KNTMEHVSSSEESIISQETY [endogenous bovine milk peptide from αS2-casein]	identified in the basolateral chamber		
PIGSENSEKTT [truncated derivative of the αS1-casein peptide …]		identified in all experiments	Peptides identified in the basolateral chamber of Caco-2 monolayers after synthetic PIGSENSEKTTMPLW was added apically [1]: identified in the basolateral chamber of both monolayers; Peptides identified in the basolateral chamber of PBEC monolayers after synthetic PIGSENSEKTTMPLW was added apically [2]: identified in the basolateral chamber of both monolayers
PIGSENSEKTTMP [truncated derivative of the αS1-casein peptide …]	identified in the basolateral chamber	identified in all experiments	Peptides identified in the basolateral chamber of Caco-2 monolayers after synthetic PIGSENSEKTTMPLW was added apically [1]: identified in the basolateral chamber of both monolayers; Peptides identified in the basolateral chamber of PBEC monolayers after synthetic PIGSENSEKTTMPLW was added apically [2]: identified in the basolateral chamber of both monolayers
PVLGPVRGPFPIIV [endogenous bovine milk peptide from β-casein]	not transported across the Caco-2 monolayers	identified in the basal compartment of the BBB model	
YDGRGDSVVYGLRSKSKKFRR (N-terminally acetylated and amidated at the C terminal)			fragment found [4]: YDGRGDSVVY, 5 min
osteopontin: bovine milk osteopontin, purified, incubated with the digestive proteases to validate their activity [reference compound]			Stability of the synthetic peptide / control in simulated gastrointestinal digestion [3]: cleaved by all the proteases
